Results from patent US20140023611A1 (priority 2010, published 2014).

Columns and labels:
human NaP2b (SLC34A2) = molecular target: T1, human NaP2b (SLC34A2) (Homo sapiens, UniProt O95436); test: Inhibition of NaP2b-mediated Pi (33P) uptake in transfected HEK293 cells, human NaP2b; assay type: cell-based; conditions: read-out: pIC50 range for human NaP2b (converted)
T1 construct: host or cells: HEK293
T1 sequence (O95436 1-690): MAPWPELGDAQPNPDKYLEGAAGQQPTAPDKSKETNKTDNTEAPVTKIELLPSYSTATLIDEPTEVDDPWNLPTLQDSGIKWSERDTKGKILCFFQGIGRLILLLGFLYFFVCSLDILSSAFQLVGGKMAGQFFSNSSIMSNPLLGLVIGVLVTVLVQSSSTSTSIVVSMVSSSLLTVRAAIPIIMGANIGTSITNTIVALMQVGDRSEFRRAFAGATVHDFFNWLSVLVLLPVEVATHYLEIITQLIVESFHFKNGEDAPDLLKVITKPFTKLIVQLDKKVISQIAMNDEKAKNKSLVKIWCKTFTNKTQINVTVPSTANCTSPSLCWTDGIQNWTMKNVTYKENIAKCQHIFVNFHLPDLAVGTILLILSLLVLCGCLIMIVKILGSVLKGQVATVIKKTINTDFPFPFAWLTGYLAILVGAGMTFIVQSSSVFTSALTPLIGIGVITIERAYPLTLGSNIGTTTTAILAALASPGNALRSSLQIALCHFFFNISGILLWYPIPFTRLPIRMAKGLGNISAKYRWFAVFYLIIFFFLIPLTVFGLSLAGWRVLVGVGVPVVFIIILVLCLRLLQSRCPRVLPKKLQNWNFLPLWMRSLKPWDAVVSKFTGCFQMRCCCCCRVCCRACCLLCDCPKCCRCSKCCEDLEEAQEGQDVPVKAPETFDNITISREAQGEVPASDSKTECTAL
Outline: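 HEK293 cells transiently transfected with human NaP2b (Thr inserted after residue 37, N39D), endogenous PiT transport pharmacologically silenced. Sodium or choline buffer, pH 7.4, with 100 uM KH2PO4, 33P orthophosphate and compound (0.1 nM–30 uM, twelve concentrations, duplicate). 3-30 min at room temperature, scintillation counting, pIC50 derived.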

rat NaP2b (SLC34A2) = molecular target: T2, rat NaP2b (SLC34A2) (Rattus norvegicus, UniProt Q9JJ09); test: Inhibition of NaP2b-mediated Pi (33P) uptake in transfected HEK293 cells, rat NaP2b; assay type: cell-based; conditions: 33P Pi uptake, 0.1 mM phosphate, value given as pIC50 range
T2 construct: host or cells: HEK293
T2 sequence (Q9JJ09 1-695): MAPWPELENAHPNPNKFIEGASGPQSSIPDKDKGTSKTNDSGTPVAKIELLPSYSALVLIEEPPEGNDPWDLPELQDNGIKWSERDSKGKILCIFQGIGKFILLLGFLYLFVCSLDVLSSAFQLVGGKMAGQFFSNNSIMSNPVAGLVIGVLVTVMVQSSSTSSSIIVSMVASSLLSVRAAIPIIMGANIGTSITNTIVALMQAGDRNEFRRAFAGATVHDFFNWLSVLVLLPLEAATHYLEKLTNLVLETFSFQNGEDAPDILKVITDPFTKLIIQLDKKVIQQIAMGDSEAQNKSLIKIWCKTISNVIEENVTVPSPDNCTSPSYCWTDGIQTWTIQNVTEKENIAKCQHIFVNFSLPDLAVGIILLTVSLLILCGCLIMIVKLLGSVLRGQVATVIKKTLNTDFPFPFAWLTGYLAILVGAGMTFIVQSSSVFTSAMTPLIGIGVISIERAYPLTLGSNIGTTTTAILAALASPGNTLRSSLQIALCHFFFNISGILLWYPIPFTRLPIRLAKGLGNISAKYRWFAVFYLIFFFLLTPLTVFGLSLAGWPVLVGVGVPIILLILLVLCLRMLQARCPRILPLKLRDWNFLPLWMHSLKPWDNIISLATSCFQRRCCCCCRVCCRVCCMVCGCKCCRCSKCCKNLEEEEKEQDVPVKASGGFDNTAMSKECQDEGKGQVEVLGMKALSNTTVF
Outline: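 HEK293 cells were transiently transfected with NaP2b cDNA using Lipofectamine and grown near confluence. Compounds were tested at twelve concentrations from 0.1 nM to 30 uM in duplicate, and 33P-phosphate uptake was counted by scintillation after lysis. Results are expressed as pIC50.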

[1] = Determination of compound Cmax and AUC after oral gavage (plasma LC-MS/MS); assay type: in vivo, Sprague-Dawley rats; conditions: Sprague-Dawley, rat, plasma, po, Structure (I) examples, Table 15, actual oral dose 3-15 mg/kg, plasma 0.5-4 h
Description: (§1) Sprague-Dawley rats were orally gavaged with test article at a nominal dose of 2.5 or 10 mg/kg and blood was collected at 0.5, 1, 2 and 4 h. Blood samples were processed to plasma using K2EDTA as an anticoaglulant. Plasma samples were treated with acetonitrile containing an internal standard, precipitated proteins removed by centrifugation. Supernatants were analyzed by LC-MS/MS and compound concentrations were determined by interpolation from a standard curve prepared in plasma. All compounds were orally dosed at the dosage shown, and pharmacokinetic parameters determined.
as §1, with “interpolated” for “interpolation”
as §1, with “interpolated” for “interpolation”

[2] = Stability of compounds in simulated gastric fluid (SGF); assay type: in vitro ADME; conditions: simulated gastric fluid (3 mg/mL pepsin), incubation time 6 hr, relative to t=0
Description: (§2) Test compounds were incubated at […] in simulated gastric fluid (SGF; standard USP solution with 3 mg/mL pepsin) or simulated intestinal fluid (SIF; standard USP solution with 3 mg/mL pancreatin) for 3 hr or 6 hr. HPLC-UV or HPLC-MS were used to determine test compound levels using peak area %. Results (Table 14) were reported as the percentage of test compound remaining after incubation in a given condition relative to test compound present at t=0 in the same condition.

[3] = Stability of compounds in simulated intestinal fluid (SIF); assay type: in vitro ADME; conditions: simulated intestinal fluid (3 mg/mL pancreatin), incubation time 6 hr, relative to t=0
Description: as §2

| IC50 (human NaP2b (SLC34A2)) [µM] | IC50 (rat NaP2b (SLC34A2)) [µM] | AUC [1] [ng·h/mL] | Cmax [1] [ng/mL] | % remaining, SGF [2] [%] | % remaining, SIF [3] [%] | Compound |
| --- | --- | --- | --- | --- | --- | --- |
| < 1 | < 1 | < 10 | < 10 |  |  | CCN(CC)c1ccc(NC(=O)c2cccc(CSc3cccc(CC(=O)O)c3)c2)c(-c2cc(C(=O)NCc3cccc(C(F)(F)F)c3)ccn2)c1 [Example 143, 2-(3-(3-(4-(diethylamino)-2-(4-(3-(trifluoromethyl)benzylcarbamoyl)pyridin-2-yl)phenylcarbamoyl)benzylthio)phenyl)acetic acid] |
|  |  |  |  | >80 | >80 | CCN(CC)c1ccc(NC(=O)c2cccc(Cn3ccc4c(C(=O)NCCOCCOCCOCCC(=O)O)cccc43)c2)c(-c2cc(C(=O)N[C@H]3CCCc4ccccc43)ccn2)c1 [Example 182, (S)-1-(1-(3-(4-(diethylamino)-2-(4-(1,2,3,4-tetrahydronaphthalen-1-ylcarbamoyl)pyridin-2-yl)phenylcarbamoyl)benzyl)-1H-indol-4-yl)-1-oxo-5,8,11-trioxa-2-azatetradecan-14-oic acid] |
| < 1 | < 1 | < 10 | < 10 |  |  | CN(CCN1CCNC(=O)C1)C(=O)c1cccc(C(=O)Nc2ccc(N3CCCCC3)cc2-c2cc(C(=O)N[C@H]3CCCc4ccccc43)ccn2)c1 [Example 215, (S)—N1-methyl-N1-(2-(3-oxopiperazin-1-yl)ethyl)-N3-(4-(piperidin-1-yl)-2-(4-(1,2,3,4-tetrahydronaphthalen-1-ylcarbamoyl)pyridin-2-yl)phenyl)isophthalamide] |
| < 1 | < 1 | < 10 | < 10 |  |  | CN1CCN(CCN(C)C(=O)c2cccc(C(=O)Nc3ccc(N4CCCCC4)cc3-c3cc(C(=O)N[C@H]4CCCc5ccccc54)ccn3)c2)CC1=O [Example 216, (S)—N1-methyl-N1-(2-(4-methyl-3-oxopiperazin-1-yl)ethyl)-N3-(4-(piperidin-1-yl)-2-(4-(1,2,3,4-tetrahydronaphthalen-1-ylcarbamoyl)pyridin-2-yl)phenyl)isophthalamide] |
| 1 to 7.94 | 1 to 7.94 | < 10 | < 10 |  |  | O=C(O)CCOCCOCCOCCNC(=O)c1cccc(SCc2cccc(C(=O)Nc3ccc(N4CCCCC4)cc3-c3cc(C(=O)N[C@H]4CCCc5ccccc54)ccn3)c2)c1 [Example 233, (S)-1-oxo-1-(3-(3-(4-(piperidin-1-yl)-2-(4-(1,2,3,4-tetrahydronaphthalen-1-ylcarbamoyl)pyridin-2-yl)phenylcarbamoyl)benzylthio)phenyl)-5,8,11-trioxa-2-azatetradecan-14-oic acid] |
| < 1 | < 1 | < 30 | < 10 |  |  | O=C(O)Cc1cccc(SCc2cccc(C(=O)Nc3ccc(N4CCCCC4)cc3-c3cc(C(=O)N[C@H]4CCCc5ccccc54)ccn3)c2)c1 [Example 234, (S)-2-(3-(3-(4-(piperidin-1-yl)-2-(4-(1,2,3,4-tetrahydronaphthalen-1-ylcarbamoyl)pyridin-2-yl)phenylcarbamoyl)benzylthio)phenyl)acetic acid] |
| < 1 | 1 to 7.94 |  |  |  |  | O=C(O)CCOCCOCCOCCOCCCc1cccc(C(=O)Nc2ccc(N3CCCCC3)cc2-c2cc(C(=O)NCc3cccc(C(F)(F)F)c3)ccn2)c1 [Example 303, 16-(3-(4-(piperidin-1-yl)-2-(4-(3-(trifluoromethyl)benzylcarbamoyl)pyridin-2-yl)phenylcarbamoyl)phenyl)-4,7,10,13-tetraoxahexadecan-1-oic acid] |
| < 1 | < 1 |  |  |  |  | CCN(CC)c1ccc(NC(=O)c2cccc(CCCOCCOCCOCCOCCOCCOCCC(=O)O)c2)c(-c2cc(C(=O)N[C@H]3CCCc4ccccc43)ccn2)c1 [Example 304, (S)-22-(3-(4-(diethylamino)-2-(4-(1,2,3,4-tetrahydronaphthalen-1-ylcarbamoyl)pyridin-2-yl)phenylcarbamoyl)phenyl)-4,7,10,13,16,19-hexaoxadocosan-1-oic acid] |
| < 1 | < 1 |  |  |  |  | CCN(CC)c1ccc(NC(=O)c2cccc(CCCOCCOCCOCCOCCOCCC(=O)O)c2)c(-c2cc(C(=O)N[C@H]3CCCc4ccccc43)ccn2)c1 [Example 306, (S)-19-(3-(4-(diethylamino)-2-(4-(1,2,3,4-tetrahydronaphthalen-1-ylcarbamoyl)pyridin-2-yl)phenylcarbamoyl)phenyl)-4,7,10,13,16-pentaoxanonadecan-1-oic acid] |
| < 1 | < 1 |  |  |  |  | CCN(CC)c1ccc(NC(=O)c2cccc(CCCOCCOCCOCCOCCOCC(CO)(CO)CO)c2)c(-c2cc(C(=O)NCc3cccc(C(F)(F)F)c3)ccn2)c1 [Example 332, N-(3-(trifluoromethyl)benzyl)-2-(5-(diethylamino)-2-(3-(3-(2-(2-(2-(2-(3-hydroxy-2,2-bis(hydroxymethyl)propoxy)ethoxy)ethoxy)ethoxy)ethoxy)propyl)benzamido)phenyl)isonicotinamide] |
| 1 to 7.94 | 1 to 7.94 |  |  |  |  | CCN(CC)c1ccc(NC(=O)c2cccc(C(=O)N(C)CCN(CCOC)CCOCCOCCOCCC(=O)NC(C)(C)C)c2)c(-c2cc(C(=O)NCc3cccc(C(F)(F)F)c3)ccn2)c1 [Example 337, N^1-(4-(Diethylamino)-2-(4-(3-(trifluoromethyl)benzylcarbamoyl)pyridin-2-yl)phenyl)-N3-(3-(2-methoxyethyl)-17,17-dimethyl-15-oxo-6,9,12-trioxa-3,16-diazaoctadecyl)-N^3-methylisophthalamide] |
| 1 to 7.94 | 1 to 7.94 |  |  |  |  | CCN(CC)c1ccc(NC(=O)c2cccc(C(=O)N(C)CCN(CCOC)CCOCCOCCOCCC(=O)N(C)CCN3CCOCC3)c2)c(-c2cc(C(=O)NCc3cccc(C(F)(F)F)c3)ccn2)c1 [Example 338, N^1-(4-(Diethylamino)-2-(4-(3-(trifluoromethyl)benzylcarbamoyl)pyridin-2-yl)phenyl)-N^3-(3-(2-methoxyethyl)-16-methyl-18-morpholino-15-oxo-6,9,12-trioxa-3,16-diazaoctadecyl)-N^3-methylisophthalamide] |
